According to PubChem BioAssay (NCI):
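Cells were grown in 96-well plates and exposed to each compound for 48 hours at five concentrations; endpoints were interpolated linearly between bracketing concentrations, or set to the highest concentration if not reached. TGI denotes the concentration required for complete inhibition of growth.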

Experiments:
Assay in all cases: NCI-60 cell line screen, 48 h
786-0 renal = system: 786-0 renal
A498 renal = system: A498 renal
A549 NSCLC = system: A549 NSCLC
ACHN renal = system: ACHN renal
BT-549 breast = system: BT-549 breast
CAKI-1 renal = system: CAKI-1 renal
CCRF-CEM leukemia = system: CCRF-CEM leukemia
COLO 205 colon = system: COLO 205 colon
DU-145 prostate = system: DU-145 prostate
EKVX NSCLC = system: EKVX NSCLC
HCC-2998 colon = system: HCC-2998 colon
HCT-116 colon = system: HCT-116 colon
HCT-15 colon = system: HCT-15 colon
HL-60(TB) leukemia = system: HL-60(TB) leukemia
HOP-62 NSCLC = system: HOP-62 NSCLC
HOP-92 NSCLC = system: HOP-92 NSCLC
HS 578T breast = system: HS 578T breast
HT29 colon = system: HT29 colon
IGROV1 ovarian = system: IGROV1 ovarian
K-562 leukemia = system: K-562 leukemia
KM12 colon = system: KM12 colon
LOX IMVI melanoma = system: LOX IMVI melanoma
M14 melanoma = system: M14 melanoma
MALME-3M melanoma = system: MALME-3M melanoma
MCF7 breast = system: MCF7 breast
MDA-MB-231 breast = system: MDA-MB-231 breast
MDA-MB-435 = system: MDA-MB-435
MDA-N = system: MDA-N
MOLT-4 leukemia = system: MOLT-4 leukemia
NCI-H226 lung = system: NCI-H226 lung
NCI-H23 lung = system: NCI-H23 lung
NCI-H460 lung = system: NCI-H460 lung
NCI-H522 lung = system: NCI-H522 lung
NCI/ADR-RES ovarian = system: NCI/ADR-RES ovarian
OVCAR-3 ovarian = system: OVCAR-3 ovarian
OVCAR-4 ovarian = system: OVCAR-4 ovarian
OVCAR-5 ovarian = system: OVCAR-5 ovarian
OVCAR-8 ovarian = system: OVCAR-8 ovarian
PC-3 prostate = system: PC-3 prostate
RPMI-8226 leukemia = system: RPMI-8226 leukemia
RXF 393 renal = system: RXF 393 renal
SF-268 CNS = system: SF-268 CNS
SF-295 CNS = system: SF-295 CNS
SF-539 CNS = system: SF-539 CNS
SK-MEL-2 melanoma = system: SK-MEL-2 melanoma
SK-MEL-28 melanoma = system: SK-MEL-28 melanoma
SK-MEL-5 melanoma = system: SK-MEL-5 melanoma
SK-OV-3 ovarian = system: SK-OV-3 ovarian
SN12C renal = system: SN12C renal
SNB-19 CNS = system: SNB-19 CNS
SNB-75 CNS = system: SNB-75 CNS
SW-620 colon = system: SW-620 colon
T-47D breast = system: T-47D breast
TK-10 renal = system: TK-10 renal
U251 CNS = system: U251 CNS
UACC-257 melanoma = system: UACC-257 melanoma
UACC-62 melanoma = system: UACC-62 melanoma
UO-31 renal = system: UO-31 renal
SR leukemia = system: SR leukemia

c1ccc(N=C2c3ccsc3C(=Nc3ccccc3)c3ccsc32)cc1
TGI (786-0 renal): 6.25 µM
TGI (A498 renal): 14.8 µM
TGI (A549 NSCLC): 4.1 µM
TGI (ACHN renal): 3.04 µM
TGI (BT-549 breast): 3.6 µM
TGI (CAKI-1 renal): 10.2 µM
TGI (CCRF-CEM leukemia): 15 µM
TGI (COLO 205 colon): 6.01 µM
TGI (DU-145 prostate): 3.12 µM
TGI (EKVX NSCLC): 4.31 µM
TGI (HCC-2998 colon): 7.25 µM
TGI (HCT-116 colon): 3.89 µM
TGI (HCT-15 colon): 4.12 µM
TGI (HL-60(TB) leukemia): 4.2 µM
TGI (HOP-62 NSCLC): 3 µM
TGI (HOP-92 NSCLC): 9.37 µM
TGI (HS 578T breast): 6.04 µM
TGI (HT29 colon): 13.7 µM
TGI (IGROV1 ovarian): 4 µM
TGI (K-562 leukemia): 10.4 µM
TGI (KM12 colon): 6.35 µM
TGI (LOX IMVI melanoma): 1.38 µM
TGI (M14 melanoma): 2.32 µM
TGI (MALME-3M melanoma): 0.921 µM
TGI (MCF7 breast): 4.79 µM
TGI (MDA-MB-231 breast): 4.5 µM
TGI (MDA-MB-435): 0.378 µM
TGI (MDA-N): 0.554 µM
TGI (MOLT-4 leukemia): 3.77 µM
TGI (NCI-H226 lung): 11.4 µM
TGI (NCI-H23 lung): 3.03 µM
TGI (NCI-H460 lung): 4.03 µM
TGI (NCI-H522 lung): 4.34 µM
TGI (NCI/ADR-RES ovarian): 14.4 µM
TGI (OVCAR-3 ovarian): 6.55 µM
TGI (OVCAR-4 ovarian): 3.32 µM
TGI (OVCAR-5 ovarian): 3.12 µM
TGI (OVCAR-8 ovarian): 5.68 µM
TGI (PC-3 prostate): 9.44 µM
TGI (RPMI-8226 leukemia): 11.7 µM
TGI (RXF 393 renal): 3.52 µM
TGI (SF-268 CNS): 6.82 µM
TGI (SF-295 CNS): 3.11 µM
TGI (SF-539 CNS): 3.83 µM
TGI (SK-MEL-2 melanoma): 3.38 µM
TGI (SK-MEL-28 melanoma): 3.97 µM
TGI (SK-MEL-5 melanoma): 2.35 µM
TGI (SK-OV-3 ovarian): 16.3 µM
TGI (SN12C renal): 3.02 µM
TGI (SNB-19 CNS): 3.88 µM
TGI (SNB-75 CNS): 2.45 µM
TGI (SW-620 colon): 3.93 µM
TGI (T-47D breast): 4.06 µM
TGI (TK-10 renal): 13.7 µM
TGI (U251 CNS): 4.01 µM
TGI (UACC-257 melanoma): 2.67 µM
TGI (UACC-62 melanoma): 3.9 µM
TGI (UO-31 renal): 3.74 µM

O=C(c1ccco1)N(C(=O)N1CCN(c2ccccc2)CC1)S(=O)(=O)c1ccccc1
TGI (786-0 renal): > 100 µM
TGI (A498 renal): > 100 µM
TGI (A549 NSCLC): > 100 µM
TGI (ACHN renal): 62.7 µM
TGI (BT-549 breast): 87.6 µM
TGI (CAKI-1 renal): 57.8 µM
TGI (CCRF-CEM leukemia): 87.6 µM
TGI (COLO 205 colon): 82.4 µM
TGI (DU-145 prostate): > 100 µM
TGI (EKVX NSCLC): 60.2 µM
TGI (HCC-2998 colon): > 100 µM
TGI (HCT-116 colon): 44 µM
TGI (HCT-15 colon): > 100 µM
TGI (HL-60(TB) leukemia): 45.1 µM
TGI (HOP-62 NSCLC): > 100 µM
TGI (HOP-92 NSCLC): 73.6 µM
TGI (HS 578T breast): > 100 µM
TGI (HT29 colon): > 100 µM
TGI (K-562 leukemia): > 100 µM
TGI (KM12 colon): > 100 µM
TGI (M14 melanoma): 60.4 µM
TGI (MALME-3M melanoma): 99.8 µM
TGI (MCF7 breast): 84 µM
TGI (MDA-MB-231 breast): > 100 µM
TGI (MDA-MB-435): 56.3 µM
TGI (MDA-N): 49.6 µM
TGI (MOLT-4 leukemia): 49.1 µM
TGI (NCI-H226 lung): > 100 µM
TGI (NCI-H23 lung): 53.2 µM
TGI (NCI-H460 lung): > 100 µM
TGI (NCI-H522 lung): 41.2 µM
TGI (NCI/ADR-RES ovarian): 55.1 µM
TGI (OVCAR-3 ovarian): > 100 µM
TGI (OVCAR-4 ovarian): > 100 µM
TGI (OVCAR-5 ovarian): > 100 µM
TGI (OVCAR-8 ovarian): > 100 µM
TGI (PC-3 prostate): > 100 µM
TGI (SF-268 CNS): > 100 µM
TGI (SF-295 CNS): > 100 µM
TGI (SF-539 CNS): 41.1 µM
TGI (SK-MEL-2 melanoma): 37.2 µM
TGI (SK-MEL-28 melanoma): > 100 µM
TGI (SK-MEL-5 melanoma): 68.3 µM
TGI (SK-OV-3 ovarian): > 100 µM
TGI (SN12C renal): 61.9 µM
TGI (SNB-19 CNS): 85.2 µM
TGI (SNB-75 CNS): 62.9 µM
TGI (SR leukemia): 51.4 µM
TGI (SW-620 colon): > 100 µM
TGI (T-47D breast): 61 µM
TGI (TK-10 renal): > 100 µM
TGI (U251 CNS): 72.2 µM
TGI (UACC-257 melanoma): > 100 µM
TGI (UACC-62 melanoma): 82 µM
TGI (UO-31 renal): 53.6 µM
